In patent publication US9314458B2, “Topical use of ingenol-3-angelate or a salt thereof to treat skin cancer” (LEO Laboratories Limited, priority 2000, dated 2016):

Columns and labels:
[1] = system: Human peripheral blood mononuclear cells; experiment: Phagocytic activity, nitroblue tetrazolium uptake; assay type: cell-based; conditions: 100 ng/mL, 20 min; controls <2%
Experimental: Human peripheral blood mononuclear cells (PBMC) prepared by standard Ficoll separation comprise approximately 5% monocytes. PBMC were incubated with dihydroethidium, a reduced form of the dye which becomes fluorescent when oxidized by a respiratory burst, then treated in 10% FCS-RPMI 1640 at 37° C. for 15 min with crude E. peplus extract diluted 1/1000 or 100 ng/mL TPA and analyzed by flow cytometry using conventional methods (Handbook of Flow Cytometry Methods, p. 151). The mean channel numbers for fluorescence were 618 (controls) and 818 (E. peplus extract diluted 1/1000). […] Phagocytic activity was determined by a conventional method (Hudson and Hay, Practical Immunology, 3rd edition, p. 74). […] The average of three fields gave figures of <2% (controls), 10% (TPA) and 8.7% (E. peplus sap) cells stained blue.

PKCα = target: T1, PKCα (Homo sapiens, UniProt P17252); assay type: cell-based; conditions: HeLa, one hour
T1 construct: host or cells: HeLa cells
Experimental: Five EGFP-PKC isoforms (Clontech) were available for this experiment, enabling the screening of the three predominant PKC families (i.e. classical, novel and atypical PKCs). The members of the various PKC families are α, β, and γ (classical), θ (novel) and ζ (atypical).
HeLa cells were plated out in a 24-well plate containing coverslips and transfected with PKC isoforms fused to EGFP, using a commercially available effectine-transfection kit (QIAGEN, Pty. Ltd.). Cells were exposed to the transfection reagents for 16-24 hr. Subsequently, transfected cells were treated for one hour with TPA (100 ng/mL), bryostatin-1 (5 pg/mL), PEP003 (2.25 μg/mL; 5 μM) or PEP005 ([…]) 1.5 μM). Following treatment, cells were fixed on coverslips and mounted on glass slides. The slides were subsequently examined visually by fluorescence microscopy, photographed, and over 150 cells were counted/treatment/PKC isoform. Counted cells were classified according to the localisation of the PKC-EGFP fluorescence as either cytoplasmic or plasma membrane using ImagePro™ 4.1 (FIG. 5). […] The number of these cells was also counted.

CCCCCCCCCCCCCC(=O)O[C@@H]1[C@@H](C)[C@@]2(O)[C@@H](C=C(CO)C[C@]3(O)C(=O)C(C)=C[C@@H]23)C2C(C)(C)[C@@]21OC(C)=O (single isomer, unassigned) [TPA]
cells stained blue (NBT) [1]: 10%
number of PKCα transfected cells displaying Golgi-like fluorescence (PKCα): increase in the number of cells displaying Golgi-like fluorescence
translocation of PKCα from cytoplasm to plasma membrane (PKCα; TPA 100 ng/mL, bryostatin-1 5 pg/mL, PEP003 2.25 μg/mL (5 μM)): translocated from the cytoplasm to the plasma membrane
